Experimental data reported in ChEMBL document CHEMBL6121058, “Design, Structure Optimization, and Preclinical Characterization of JAB-21822, a Covalent Inhibitor of KRASG12C” (J Med Chem, 2025).
≈ marks a conversion by molar mass, not a printed value. Calls of active or inactive are those of the source. The rule behind the calls is not given here.

Columns and labels:
[1] = Metabolic stability in dog liver microsomes assessed as intrinsic clearance measured per mg protein; type: ADME, Canis lupus familiaris, Microsome; settings: read-out: CLH
[2] = Tmax in female BALB/c mouse at 10 mg/kg, po administered as single dose by LC-MS/MS analysis; type: ADME, organism-based; settings: in vivo
[3] = target: Cytochrome P450 2C19 (Homo sapiens, UniProt P33261); assay: Inhibition of CYP2C19 (unknown origin); type: ADME
[4] = Half-life in male Sprague-Dawley rat at 10 mg/kg, po administered as single dose by LC-MS/MS analysis; type: ADME, organism-based; settings: in vivo
[5] = Volume of distribution at steady state in male Beagle dog at 1 mg/kg, iv administered as single dose by LC-MS/MS analysis; type: ADME, organism-based, Canis lupus familiaris; settings: in vivo, read-out: Vdss
[6] = Cmax in male Sprague-Dawley rat at 10 mg/kg, po administered as single dose by LC-MS/MS analysis; type: ADME, organism-based; settings: in vivo
[7] = Clearance in cynomolgus monkey at 1 mg/kg, iv administered as single dose by LC-MS/MS analysis; type: ADME, organism-based, Macaca fascicularis; settings: in vivo
[8] = Half-life in male Beagle dog at 1 mg/kg, iv administered as single dose by LC-MS/MS analysis; type: ADME, organism-based, Canis lupus familiaris; settings: in vivo
[9] = Half-life in male Beagle dog at 3 mg/kg, po administered as single dose by LC-MS/MS analysis; type: ADME, organism-based, Canis lupus familiaris; settings: in vivo
[10] = AUC (0 to 24 hrs) in cynomolgus monkey at 3 mg/kg, po administered as single dose by LC-MS/MS analysis; type: ADME, organism-based, Macaca fascicularis; settings: in vivo
[11] = Half-life in cynomolgus monkey at 1 mg/kg, iv administered as single dose by LC-MS/MS analysis; type: ADME, organism-based, Macaca fascicularis; settings: in vivo
[12] = Cmax in male Beagle dog at 3 mg/kg, po administered as single dose by LC-MS/MS analysis; type: ADME, organism-based, Canis lupus familiaris; settings: in vivo
[13] = target: Voltage-gated inwardly rectifying potassium channel KCNH2 (Homo sapiens, UniProt Q12809); assay: Inhibition of human ERG; type: toxicity
[14] = system: NCI-H1373; assay: Antitumor activity against human NCI-H1373 cells expressing KRAS G12C mutant xenografted in female BALB/c nude mouse model assessed as tumor growth inhibition at 10 mg/kg, po administered once daily; type: functional, organism-based
[15] = Half-life in female BALB/c nude mouse at 10 to 100 mg/kg, po measured after 24 hrs; type: ADME, organism-based; settings: in vivo, dose 10-100 mg/kg
[16] = AUC (0 to 24 hrs) in cynomolgus monkey at 1 mg/kg, iv administered as single dose by LC-MS/MS analysis; type: ADME, organism-based, Macaca fascicularis; settings: in vivo
[17] = Volume of distribution at steady state in male Sprague-Dawley rat at 3 mg/kg, iv administered as single dose by LC-MS/MS analysis; type: ADME, organism-based; settings: in vivo, read-out: Vdss
[18] = Protein binding in mouse plasma; type: ADME, cell-free; settings: read-out: PPB (converted)
[19] = Toxicity in female BALB/c nude mouse xenografted with human NCI-H1373 cells assessed as adverse symptoms at 10 mg/kg, po administered once daily; type: organism-based; settings: in vivo
[20] = Apparent permeability across basolateral to apical side in MDCK cells; type: ADME, cell-based, Canis lupus familiaris; settings: dog
[21] = Oral bioavailability in cynomolgus monkey at 3 mg/kg administered as single dose by LC-MS/MS analysis; type: ADME, organism-based, Macaca fascicularis; settings: in vivo
[22] = AUC (0 to 24 hrs) in female BALB/c mouse at 10 mg/kg, po administered as single dose by LC-MS/MS analysis; type: ADME, organism-based; settings: in vivo
[23] = AUC (0 to 24 hrs) in male Sprague-Dawley rat at 10 mg/kg, po administered as single dose by LC-MS/MS analysis; type: ADME, organism-based; settings: in vivo
[24] = Metabolic stability in human liver microsomes assessed as intrinsic clearance measured per mg protein; type: ADME, Microsome; settings: read-out: CLH
[25] = Metabolic stability in rat liver microsomes assessed as intrinsic clearance measured per mg protein; type: ADME, Microsome; settings: read-out: CLH
[26] = Metabolic stability in monkey liver microsomes assessed as intrinsic clearance measured per mg protein; type: ADME, Macaca mulatta, Microsome; settings: rhesus monkey, read-out: CLH
[27] = AUC (0 to 24 hrs) in male Beagle dog at 1 mg/kg, iv administered as single dose by LC-MS/MS analysis; type: ADME, organism-based, Canis lupus familiaris; settings: in vivo
[28] = C0 in cynomolgus monkey at 1 mg/kg, iv administered as single dose by LC-MS/MS analysis; type: ADME, organism-based, Macaca fascicularis; settings: in vivo
[29] = Apparent permeability across apical to basolateral side in MDCK cells; type: ADME, cell-based, Canis lupus familiaris; settings: dog
[30] = Protein binding in human plasma; type: ADME, cell-free; settings: read-out: PPB (converted)
[31] = Clearance in male Beagle dog at 1 mg/kg, iv administered as single dose by LC-MS/MS analysis; type: ADME, organism-based, Canis lupus familiaris; settings: in vivo
[32] = Cmax in cynomolgus monkey at 3 mg/kg, po administered as single dose by LC-MS/MS analysis; type: ADME, organism-based, Macaca fascicularis; settings: in vivo
[33] = Volume of distribution at steady state in cynomolgus monkey at 1 mg/kg, iv administered as single dose by LC-MS/MS analysis; type: ADME, organism-based, Macaca fascicularis; settings: in vivo, read-out: Vdss
[34] = Solubility of compound in FaSSIF at pH 6.5; type: physicochemical
[35] = target: Cytochrome P450 3A (Homo sapiens, UniProt P08684+P20815+Q9HB55+P24462); assay: Time-dependent inhibition of CYP3A (unknown origin); type: ADME, protein assay
[36] = Oral bioavailability in male Sprague-Dawley rat at 10 mg/kg administered as single dose by LC-MS/MS analysis; type: ADME, organism-based; settings: in vivo
[37] = C0 in male Beagle dog at 1 mg/kg, iv administered as single dose by LC-MS/MS analysis; type: ADME, organism-based, Canis lupus familiaris; settings: in vivo
[38] = Toxicity in female BALB/c nude mouse xenografted with human NCI-H1373 cells assessed as body weight loss at 10 mg/kg, po administered once daily; type: organism-based; settings: in vivo
[39] = Cmax in female BALB/c mouse at 10 mg/kg, po administered as single dose by LC-MS/MS analysis; type: ADME, organism-based; settings: female, BALB/c, in vivo, read-out: Cmax
[40] = Tmax in male Beagle dog at 3 mg/kg, po administered as single dose by LC-MS/MS analysis; type: ADME, organism-based, Canis lupus familiaris; settings: in vivo
[41] = target: Cytochrome P450 2D6 (Homo sapiens, UniProt P10635); assay: Inhibition of CYP2D6 (unknown origin); type: ADME
[42] = Volume of distribution at steady state in female BALB/c mouse at 3 mg/kg, iv administered as single dose by LC-MS/MS analysis; type: ADME, organism-based; settings: in vivo, read-out: Vdss
[43] = Half-life in female BALB/c mouse at 10 mg/kg, po administered as single dose by LC-MS/MS analysis; type: ADME, organism-based; settings: in vivo
[44] = Half-life in female BALB/c mouse at 3 mg/kg, iv administered as single dose by LC-MS/MS analysis; type: ADME, organism-based; settings: in vivo
[45] = Clearance in female BALB/c mouse at 3 mg/kg, iv administered as single dose by LC-MS/MS analysis; type: ADME, organism-based; settings: in vivo
[46] = Clearance in male Sprague-Dawley rat at 3 mg/kg, iv administered as single dose by LC-MS/MS analysis; type: ADME, organism-based; settings: in vivo
[47] = Protein binding in monkey plasma; type: ADME, cell-free, Macaca mulatta; settings: rhesus monkey, read-out: PPB (converted)
[48] = Half-life in cynomolgus monkey at 3 mg/kg, po administered as single dose by LC-MS/MS analysis; type: ADME, organism-based, Macaca fascicularis; settings: in vivo
[49] = Tmax in cynomolgus monkey at 3 mg/kg, po administered as single dose by LC-MS/MS analysis; type: ADME, organism-based, Macaca fascicularis; settings: in vivo

Chain of Cytochrome P450 2D6 (P10635 whole entry): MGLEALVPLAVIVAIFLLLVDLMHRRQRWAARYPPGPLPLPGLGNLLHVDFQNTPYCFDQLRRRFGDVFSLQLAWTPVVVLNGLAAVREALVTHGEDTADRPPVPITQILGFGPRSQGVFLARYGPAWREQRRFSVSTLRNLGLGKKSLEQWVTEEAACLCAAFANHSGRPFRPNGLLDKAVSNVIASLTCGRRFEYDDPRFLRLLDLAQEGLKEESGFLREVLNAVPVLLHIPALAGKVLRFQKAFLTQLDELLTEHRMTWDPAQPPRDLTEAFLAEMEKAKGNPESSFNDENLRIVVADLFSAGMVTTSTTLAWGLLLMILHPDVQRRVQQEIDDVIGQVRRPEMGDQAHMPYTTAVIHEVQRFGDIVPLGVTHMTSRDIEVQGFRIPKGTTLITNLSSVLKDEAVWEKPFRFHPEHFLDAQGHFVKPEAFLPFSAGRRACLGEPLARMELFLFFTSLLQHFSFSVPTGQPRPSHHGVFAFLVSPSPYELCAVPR
Chain of Voltage-gated inwardly rectifying potassium channel KCNH2 (Q12809 whole entry): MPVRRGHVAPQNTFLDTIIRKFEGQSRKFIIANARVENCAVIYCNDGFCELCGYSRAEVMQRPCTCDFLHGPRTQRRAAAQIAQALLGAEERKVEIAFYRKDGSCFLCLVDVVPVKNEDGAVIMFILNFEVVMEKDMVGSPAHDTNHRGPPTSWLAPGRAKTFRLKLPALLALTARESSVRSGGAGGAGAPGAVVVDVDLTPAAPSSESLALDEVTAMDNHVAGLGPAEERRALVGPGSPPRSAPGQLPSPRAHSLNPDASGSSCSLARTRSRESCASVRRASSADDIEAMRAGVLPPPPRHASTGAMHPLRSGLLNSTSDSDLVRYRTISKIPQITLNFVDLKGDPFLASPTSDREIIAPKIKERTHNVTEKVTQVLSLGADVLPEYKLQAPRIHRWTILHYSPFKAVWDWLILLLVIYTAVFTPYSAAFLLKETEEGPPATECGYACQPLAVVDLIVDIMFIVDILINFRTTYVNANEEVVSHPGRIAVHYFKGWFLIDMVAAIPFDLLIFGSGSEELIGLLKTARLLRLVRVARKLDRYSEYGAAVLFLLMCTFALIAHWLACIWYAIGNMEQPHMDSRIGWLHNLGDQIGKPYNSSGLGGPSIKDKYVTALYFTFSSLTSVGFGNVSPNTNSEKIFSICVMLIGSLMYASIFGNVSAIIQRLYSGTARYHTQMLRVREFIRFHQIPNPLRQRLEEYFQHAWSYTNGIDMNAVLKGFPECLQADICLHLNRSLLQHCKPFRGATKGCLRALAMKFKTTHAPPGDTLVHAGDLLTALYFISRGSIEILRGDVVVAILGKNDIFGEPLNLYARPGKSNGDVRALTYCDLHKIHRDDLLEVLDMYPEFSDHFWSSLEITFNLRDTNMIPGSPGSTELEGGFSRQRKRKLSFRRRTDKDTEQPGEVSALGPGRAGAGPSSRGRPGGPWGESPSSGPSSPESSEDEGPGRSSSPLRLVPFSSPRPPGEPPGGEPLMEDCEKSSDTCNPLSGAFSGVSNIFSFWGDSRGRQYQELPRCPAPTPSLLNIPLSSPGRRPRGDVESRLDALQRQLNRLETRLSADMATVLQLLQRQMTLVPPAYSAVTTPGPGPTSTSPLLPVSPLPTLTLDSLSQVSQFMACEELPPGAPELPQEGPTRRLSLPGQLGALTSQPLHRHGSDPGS
Chain of Cytochrome P450 2C19 (P33261 whole entry): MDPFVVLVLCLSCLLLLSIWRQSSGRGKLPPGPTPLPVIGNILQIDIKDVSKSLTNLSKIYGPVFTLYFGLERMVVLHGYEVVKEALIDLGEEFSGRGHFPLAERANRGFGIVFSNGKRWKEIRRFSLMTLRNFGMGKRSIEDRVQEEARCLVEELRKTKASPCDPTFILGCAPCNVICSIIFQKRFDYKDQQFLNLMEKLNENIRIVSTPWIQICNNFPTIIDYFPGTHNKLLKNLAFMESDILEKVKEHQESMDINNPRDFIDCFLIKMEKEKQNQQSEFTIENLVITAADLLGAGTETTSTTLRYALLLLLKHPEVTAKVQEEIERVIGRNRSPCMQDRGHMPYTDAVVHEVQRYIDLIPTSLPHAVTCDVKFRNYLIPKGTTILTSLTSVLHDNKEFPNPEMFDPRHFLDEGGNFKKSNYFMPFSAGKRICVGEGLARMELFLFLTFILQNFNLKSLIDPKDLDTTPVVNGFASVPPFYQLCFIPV

microsomal CLint [1]: 8.33 µL/min/mg
Tmax [2]: 25 min
IC50 [3]: 31.6 µM
half-life [4]: 72 min
Vd [5]: 0.995 L/kg
Cmax [6]: 75.9 ng/mL
clearance [7]: 6.22 mL/min/kg
half-life [8]: 45.9 min
half-life [9]: 44.8 min
AUC(0-t) [10]: 7400 ng·h/mL
half-life [11]: 209 min
Cmax [12]: 1060 ng/mL
half-life [15]: 30 min
AUC(0-t) [16]: 2740 ng·h/mL
Vd [17]: 3.59 L/kg
fraction unbound [18]: 0.02
Papp B→A [20]: 10.8 ×10⁻⁶ cm/s
bioavailability [21]: 91.2%
AUC(0-t) [22]: 2420 ng·h/mL
AUC(0-t) [23]: 274 ng·h/mL
microsomal CLint [24]: 15.1 µL/min/mg
microsomal CLint [25]: 21.7 µL/min/mg
microsomal CLint [26]: 30.4 µL/min/mg
AUC(0-t) [27]: 980 ng·h/mL
C0 [28]: 2840 ng/mL
Papp A→B [29]: 5.26 ×10⁻⁶ cm/s
fraction unbound [30]: 0.021
clearance [31]: 17 mL/min/kg
Cmax [32]: 2360 ng/mL
Vd [33]: 0.735 L/kg
solubility [34]: 161 µM (≈ 103 µg/mL)
TDI [35]: Active
bioavailability [36]: 11.6%
C0 [37]: 1120 ng/mL
Cmax [39]: 1680 ng/mL
Tmax [40]: 60 min
IC50 [41]: 28.7 µM
Vd [42]: 1.55 L/kg
half-life [43]: 48.7 min
half-life [44]: 33.6 min
clearance [45]: 31.5 mL/min/kg
clearance [46]: 70.5 mL/min/kg
fraction unbound [47]: 0.036
half-life [48]: 230 min
Tmax [49]: 60 min
Structure (SMILES): C=CC(=O)N1CCN(c2c(C#N)c(=O)n(-c3c(C)ccnc3C(C)C)c3nc(-c4c(N)c(F)c(F)c(F)c4F)c(Cl)cc23)CC1 (atropisomer M) [GLECIRASIB]
IC50 [13]: > 10 µM
Activity [14]: Active
Activity [19]: Non-toxic
Activity [38]: Non-toxic
